Reference: patent US10583109B2, “Use of silver(I) complexes as anticancer agents” (University of Johannesburg, priority 2012, dated 2020)

Legend:
Format in all cases: cell-based
[1] = test system: SNO-oesophageal cancer cells; assay: Flow cytometric analysis (Annexin-V FITC / PI) of apoptosis and/or necrosis in SNO-oesophageal cancer cells; settings: 10 μM, 24 hours of treatment
Experimental: To determine if either apoptosis or necrosis occurred, the cells were double labelled with Annexin-V FITC and Propidium Iodide (PI) by means of an Annexin-V FITC assay kit (Serotec, UK). This was done according to manufacturer's instructions with a few adjustments. Briefly, the cells (±3×10^5 cells/ml) were washed twice with cold phosphate buffered saline (PBS), followed by the addition of 100 μl 1× binding buffer. Two and a half microliters of Annexin-V along with 5 μl PI were added in the dark and was incubated for 15 minutes at room temperature. After incubation, 400 μl 1× binding buffer was added and cells were analysed using the FACSAria flow cytometer (BD Biosciences, San Jose, Calif.) with FACSDiva software (BD Biosciences, San Jose, Calif.) 492 nm (excitation) and 520 nm for Annexin and 488 nm and 575 nm(emission) for PI.
The cell membrane contains a negatively charged phosphatidylserine (PS) on the inner leaflet and is exposed when apoptosis or necrosis takes place. Annexin-V interacts with PS in both apoptotic and necrotic cells, making these cellular deaths undistinguishable. This is overcome by using PI as an alternative label that interacts with the exposed DNA of necrotic cells only, leading to the fluorescent detection of both these labels. Pie charts (FIG. 9) were constructed for all the controls (including Ligand-1 to Ligand-5) and the different silver(I) thiocyanate phosphine complexes (1)-(5).
Pie charts representing the four different flow cytometric quadrants of Annexin-V and […] to determine the mode of cellular death induced in differentially treated SNO-oesophageal cells are represented in FIG. 9. An untreated control (A), apoptotic control (B) and necrotic control (C) were included. Cells were treated with 10 μM of the different ligands including the silver(I) thiocyanate phosphine complexes (1)-(5). An average percentage was calculated for all segments where the SEM is n=3 for all treatments except for 15% H2O2 (n=2). The four segments represent the following: White segment—negative for FITC and PI, Light grey segment—positive for FITC but negative for PI, Dark grey segment—positive for PI but negative for FITC and Black segment—positive for both FITC and PI. Cells undergoing early apoptosis are represented by the light grey segment, while those of late apoptosis and primary necrosis are represented by the black segment. Necrotic cells are represented by the dark grey segment and intact viable cells are shown by the white segment.
Approximately 3×10^5 cells were washed with ice cold phosphate buffered saline solution (PBS). The cells were double labeled using an Annexin-V FITC assay kit adjusting the protocol. A 1× binding buffer (100 μl) was used to fix the cells. Annexin-V (2.5 μl) and Propidium Iodide (PI—5 μl) labels were added respectively followed by a 15 minute incubation, at room temperature, in the dark. After the incubation period, 400 μl of the 1× binding buffer was added, where counting of the cellular events was made using an FACSAria flow cytometer (BD Biosciences, San Jose, Calif.) with FACSDiva software (BD Biosciences, San Jose, Calif.). This technique in particular identifies whether predicted apoptotic cell death (or necrosis) was induced by these complexes.
As observed in FIG. 14, dot blots represent the mode of cellular death induced in the SNO-oesophageal cancer cells after 24 hours of treatment. FIG. 14(a): 0.1% DMSO, FIG. 14(b): 100 μM CDDP, FIG. 14(c): 25% H2O2, FIG. 14(d-i): complexes (6)-(9). An average percentage was calculated for all quadrants where the SEM is n=2 for all treatments. The four quadrants represent the following: Quadrant Q3 is negative for FITC and PI, Quadrant Q4 is positive for FITC but negative for PI, Quadrant Q1 is positive for PI but negative for FITC and Quadrant Q2 is positive for both FITC and PI. Cells undergoing early apoptosis are more likely to be found in Quadrant Q4 while those of late apoptosis and primary necrosis will be found in Quadrant Q2. […]

[2] = test system: SNO-oesophageal cancer cells; settings: for cells' viability: 10 µM
Experimental: The SNO-oesophageal cancer cells were cultured in Dulbecco's modified Eagles medium (DMEM) containing 10% Foetal bovine serum (FBS), 0.8% Penicillin/Streptomycin/Fungizone and 0.2% Gentamycin. The SNO-oesophageal cancer cells were subcultured every 48 hours and incubated at 37° C. under a 5% CO2 humidified atmosphere. After 48 hours the cells were trypsinized and plated (6×10^5 cells) in 3.5 cm culture dishes and left to cultivate for 24 hours.
MCF-7 breast cancer cells, in terms of a first study, and SNO-oesophageal cancer cells, in terms of a second study, were treated with 10 μM silverthiocyanide complexes (1)-(5), as well as their ligands (Ligand-1 to Ligand-5) over a 24 hour incubation period. These complexes were dissolved in 0.1% Dimethyl sulfoxide (DMSO). The DMSO alone (vehicle control) decreased the viability with approximately 2.2%, signifying its minimal influence in cancer cell growth. For comparative purposes, 100 μM Cisplatin (CDDP) and 25% H2O2 was included which respectively serves as the apoptotic and necrotic controls. Cisplatin was prepared in 0.9% NaCl, whereas H2O2 was prepared in the supplemented DMEM media right before treatment. An untreated negative control (UT) was exposed to similar conditions as the treated cells and monitored during the experimental study.
An AlamarBlue® Viability® (Serotec, UK) assay was performed after a 24 hour treatment with complexes (1)-(5) and their ligands (Ligand-1 to Ligand-5, respectively) to evaluate the cellular effect the instant complexes (and their ligands) may have on the cancer cells. AlamarBlue® dye (10%) was incubated with trypsinized cells over a 2 hour period before the fluorescence was measured with a Synergy HT Multi-Detection Microplate reader (BioTek, Winooski, Vt.) at wavelengths of 530 nm and (excitation) and 590 nm (emission). This fluorescent based assay in particular involves the metabolic oxidation-reduction reaction of resazurin to a reduced resorufin product that is directly proportional to the amount of viable cells.
The percentage cellular viability of differentially treated SNO-oesophageal cells was determined using an AlamarBlue® assay, as depicted in FIG. 7. Different controls (grey) were included: untreated, 0.1% DMSO solvent and apoptotic control (100 μM Cisplatin) as well as the corresponding ligands (10 μM) of complexes (1)-(5). Cells were treated with silver(I) thiocyanate phosphine complexes (1)-(5) at a concentration of 10 μM. The percentages were calculated with respect to the control and error bars were constructed on the basis of Standard Error of the Mean (SEM) where n=9 except for the ligand of compound 4 (n=8). The P-values (*P<0.001 and **P<0.0001) were determined with the Student's T-test to evaluate the significant difference.
The cells were thereafter treated with complexes (6)-(9) at a concentration of 10 μM prepared in 0.1% DMSO. Treatment with either 25% H2O2 or 100 μM CDDP served as controls for necrosis and apoptosis respectively. The CDDP was prepared in 0.9% NaCl while the H2O2 was diluted with supplemented DMEM prior to treatment.
A suspension (100 μl) of the differentially treated cells was added in triplicate to a microtiter plate. In the dark, AlamarBlue® dye (10 μl) was added to each well containing a sample, followed by a 2 hour incubation in a 5% CO2 incubator at 37° C. The fluorescence was read on a Synergy HT Multi-Detection Microplate reader at a wavelength of 530 nm and (excitation) and 590 nm (emission). In terms of this study, the apoptotic control CDDP (100 μM) was included. Error bars represent the standard error of the mean (SEM) where n=9. The Student's T-test was used to determine the significant difference of the treatments with respect to DMSO (P*<0.05 and P**<0.001). The silver(I) nitrate phosphine complexes under evaluation decreased the cancer cell viability to a large extent compared to DMSO except complex (9).
SNO-oesophageal cancer cells were a gift from the University of Pretoria, RSA. […]

[3] = test system: SNO-oesophageal cancer cells; assay: Morphological features of SNO-oesophageal cancer cells by inverse light microscopy; settings: 10 μM, 24 hours of treatment
Experimental: Morphological studies were done by means of an Axiovert 25 inverted microscope (Carl Zeiss, Göttingen, Germany) with Axio Vision 3.1 software (Carl Zeiss, Göttingen, Germany) using an magnification of 100×.
After 24 hours of treatment with complexes (1)-(5) including their ligands the cells were examined under said Axiovert 25 inverted light microscope. This was done to determine how the complexes of the present invention influence morphology which was compared to 100 μM Cisplatin (apoptotic control) and 15% H2O2 (necrotic control).
Light microscope images indicating the morphology of the differentially treated SNO-oesophageal cancer cells is shown in FIG. 8. An untreated control (a) including 100 μM Cisplatin (b), an apoptotic control and 15% H2O2 (c), and a necrotic control was included. Cells were treated with 10 μM silver(I) thiocyanate phosphine complexes (1)-(5) as well as their separate ligands (Ligand-1 to Ligand-5, respectively) (FIGS. 8d to 8m). Black arrows represent signs of apoptosis, while the white arrows represent signs of necrosis.
An Axiovert 25 inverted microscope was used to examine if these complexes affect the morphological features of the malignant cells in any other way. This was done at a magnification of 100× with the use of Axio Version 3.1 software (Carl Zeiss, Gottingen, Germany).
Morphological studies where done after 24 hours of treatment to determine how these compounds influence/change specific features of the malignant SNO-oesophageal cancer cells, compared to the untreated (UC) and 1% DMSO vehicle control. The treated cancer cells including their controls were examined under an Axiovert 25 inverted light microscope (Carl Zeiss, Göttingen, Germany) with Axio Vision 3.1 software (Carl Zeiss, Göttingen, Germany) using a 100× magnification. In FIG. 19, the morphology of the different controls including Ligand-10 and complexes (10)-(12) are represented. To predict the targeting mechanisms of these compounds, the treated cells were compared to 100 μM Cisplatin (apoptotic control) and 25% H2O2 (necrotic control).

## O=[N+]1[O][Ag]([P+](c2ccccc2)(c2ccccc2)c2ccccc2)([P+](c2ccccc2)(c2ccccc2)c2ccccc2)[O]1 [complex (7), AgNO3(PPh3)2]
[1]
  apoptotic cell death (flow cytometry, Q4 and Q2): 30.6%

## O=[N+]([O-])[O-].[Ag+].c1ccc(P(c2ccccc2)c2ccccc2)cc1 [complex (6), AgNO3(PPh3)]
[1]
  apoptotic cell death (flow cytometry, Q4 and Q2): 20%

## [AgSCN{P(4-MeOC6H4)3}2]n [complex (5)]
[2]; 10 μM, 24 hour treatment, compared to the control
  percentage cellular viability / toxicity: highly toxic
[3]
  necrotic cell death (morphology): Necrotic cell death was also observed

## Fc1ccc(P(c2ccc(F)cc2)c2ccc(F)cc2)cc1 [Ligand-3, P(4-FC6H4)3, reference compound]
[3]
  signs of apoptosis (morphology): no

## O=[N+]([O-])[O][Ag]([P+](c1ccccc1)(c1ccccc1)c1ccccc1)([P+](c1ccccc1)(c1ccccc1)c1ccccc1)[P+](c1ccccc1)(c1ccccc1)c1ccccc1 [complex (8), AgNO3(PPh3)3]
[1]
  apoptotic cell death (flow cytometry, Q4 and Q2): 24%

## Cc1ccc(P(c2ccc(C)cc2)c2ccc(C)cc2)cc1 [Ligand-2, P(p-MeC6H4)3, reference compound]
[2]
  cells' viability: 86.4%
[3]
  signs of apoptosis (morphology): minimal

## c1ccc(P(c2ccccc2)c2ccccc2)cc1 [Ligand-1, triphenyl phosphine, reference compound]
[3]
  signs of apoptosis (morphology): minimal

## Clc1ccc(P(c2ccc(Cl)cc2)c2ccc(Cl)cc2)cc1 [Ligand-4, tris parachlorophenyl phosphine, reference compound]
[3]
  signs of apoptosis (morphology): minimal

## COc1ccc(P(c2ccc(OC)cc2)c2ccc(OC)cc2)cc1 [Ligand-5, P(p-MeOC6H4)3, reference compound]
[2]
  cells' viability: 80.7%
[3]
  signs of apoptosis (morphology): minimal
